Source: publication PMC7596181 (Frontiers in Immunology, 2020)

Assays:
human TLR4 [1] = biological target: T1, human TLR4 (Homo sapiens, UniProt O00206+Q9Y6Y9); test: SEAP assay, agonist dose response in human TLR4 HEK-Blue reporter cells; format: cell-based; design: host or cells: HEK-Blue (HEK293-derived) reporter cells; settings: for EC50 / agonist profile: human TLR4 HEK-Blue reporter cells; for EC50: read-out: EC50 for stimulation
Description: (§1) Human and mouse HEK-Blue reporter cells express human or mouse CD14, MD2, and TLR4 and secreted embryonic alkaline phosphatase (SEAP) under control of a promoter with binding sites for NFκB and AP-1 transcription factors (InvivoGen cat. nos. hkb-htlr4 and hkb-mtlr4). Cells were cultured as directed by the supplier, with the exception that Glutamax (ThermoFisher cat. no. 10569010) was used in place of L-glutamine, and TrypLE Express (ThermoFisher cat. no. 12605010) was used to release adherent cells for each passage. BALB/c mouse RAW264.7 and human THP-1 cells (ATCC® cat. nos. TIB-71 and TIB-202) were cultured in DMEM (4.5 g/L D-Glucose with 2 mM L-glutamine, 1 mM sodium pyruvate, 100 U/ml penicillin and 100 μg/ml streptomycin) supplemented with 10% heat-inactivated FBS. THP-1 cells were exposed to phorbol-12-myristate-13-acetate (PMA, InvivoGen cat no. tlrl-pma), 5 ng/ml, for 48 h prior to treatment with TLR4 agonists. Bone marrow-derived dendritic cells (BMDCs) were generated using C57BL/6 mouse femurs following the exact method published by Lutz et al. ([29]) except that 5 rather than 20 ng/ml recombinant GM-CSF was used to differentiate the DC. Human peripheral blood […] (PBMCs) were prepared from venous blood of healthy volunteers that had been collected using sodium citrate as anti-coagulant, 20 ml of which was mixed with 15 ml calcium- and magnesium-free Hank’s Balanced Saline Solution (HBSS) and then laid over 6 ml Histopaque®-1077 (1.077 g/ml, Sigma-Aldrich cat no. 10771) for density gradient centrifugation. The buffy coat layer was collected by pipette, washed once in HBSS, once in serum-free RPMI-1640, and then the PBMCs were resuspended in RPMI-1640 supplemented with 100 U/ml penicillin, 100 µg/ml streptomycin, 1 mM Na-Pyruvate, 2 mM L-glutamine, 50 μM βME and 10% heat-inactivated, male AB human serum for culture.
(§2) SEAP assays were performed to evaluate the extent to which TLR4 signaling was activated in HEK-Blue reporter cells expressing mouse or human receptors (CD14, MD2 and TLR4). Reporter cells were harvested when 70–80% confluent and plated in 96-well, flat-bottom microtiter plates either 1 h, one day or two days (5 × 10^4, 4 × 10^4 or 2 × 10^4 cells/well, respectively) before addition of TLR4 agonists for 18–24 h. Culture supernatants were transferred to U-bottom microtiter plates, centrifuged and transferred again to microtiter plates to ensure reporter cells were not present. The culture supernatants were added to QUANTI-BLUE substrate following instructions provided by the manufacturer (InvivoGen cat. nos. rep-qbl or rep-qbs) and incubated at 37°C in a tissue culture incubator. At successive intervals beginning 10 min after mixing the supernatants and substrate, the plates were placed in an Emax plate reader (Molecular Devices LLC) and optical density was measured at visible light wavelength […] (OD650). The shortest incubations at which dose response curve fits produced maximal R^2 ‘goodness of fit’ values, as determined by GraphPad Prism software, were used for analysis.
(§3) Pharmacological profiles of the TLR4 reagents were generated by performing dose response curves in one of four formats. 1) Agonist potency and efficacy (EC50 and height of dose plateau, respectively) were measured by diluting TLR4 reagents successively in complete culture medium [DMEM or RPMI supplemented with fetal bovine serum (FBS) or RPMI supplemented with human serum, depending on cell-type]. Half-log step dilutions were performed in 96-well, U-bottom microtiter plates using a multichannel pipette to transfer and mix the suspensions, with fresh tips used for each dilution step. One-tenth (20 μl) volumes from wells of the dilution plate were then transferred to wells containing cells that had been plated in nine-tenth volumes (180 μl) of culture medium. […]

mouse TLR4 [2] = biological target: T2, mouse TLR4 (Mus musculus, UniProt Q9JHF9+Q9QUK6); test: SEAP assay, agonist dose response in mouse TLR4 HEK-Blue reporter cells; format: cell-based; design: host or cells: HEK-Blue (HEK293-derived) reporter cells; settings: for agonist profile: mouse TLR4 HEK-Blue reporter cells
T2 sequence (Q9QUK6 26-835): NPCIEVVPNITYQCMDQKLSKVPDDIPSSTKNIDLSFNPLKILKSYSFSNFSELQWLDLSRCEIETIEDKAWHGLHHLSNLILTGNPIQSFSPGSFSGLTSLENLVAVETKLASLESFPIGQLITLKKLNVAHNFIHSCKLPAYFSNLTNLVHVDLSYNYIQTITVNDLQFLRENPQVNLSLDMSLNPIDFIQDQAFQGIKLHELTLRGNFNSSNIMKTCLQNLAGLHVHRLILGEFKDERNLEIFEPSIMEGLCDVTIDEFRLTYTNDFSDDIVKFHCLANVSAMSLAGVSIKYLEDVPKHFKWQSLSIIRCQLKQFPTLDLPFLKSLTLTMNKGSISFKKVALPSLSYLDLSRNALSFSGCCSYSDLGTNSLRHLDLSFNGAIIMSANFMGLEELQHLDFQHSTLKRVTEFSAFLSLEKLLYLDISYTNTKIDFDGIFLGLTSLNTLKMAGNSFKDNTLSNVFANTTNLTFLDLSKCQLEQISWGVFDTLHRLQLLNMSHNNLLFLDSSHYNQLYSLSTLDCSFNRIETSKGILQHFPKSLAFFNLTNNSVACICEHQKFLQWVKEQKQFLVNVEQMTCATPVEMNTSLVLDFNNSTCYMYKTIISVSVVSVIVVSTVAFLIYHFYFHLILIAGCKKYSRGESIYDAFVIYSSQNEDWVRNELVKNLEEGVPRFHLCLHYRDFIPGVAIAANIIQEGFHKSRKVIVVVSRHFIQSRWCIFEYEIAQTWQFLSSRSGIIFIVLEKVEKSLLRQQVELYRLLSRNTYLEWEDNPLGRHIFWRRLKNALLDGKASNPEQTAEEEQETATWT
T2 sequence (Q9JHF9 19-160): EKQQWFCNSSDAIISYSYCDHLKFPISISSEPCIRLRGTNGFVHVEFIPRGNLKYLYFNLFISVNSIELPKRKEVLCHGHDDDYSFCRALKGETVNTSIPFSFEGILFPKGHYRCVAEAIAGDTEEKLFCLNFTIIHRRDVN
Description: as §1, §2, §3

human TLR4 [3] = biological target: T1, human TLR4; design: method as in PMID 1918061; settings: cited from earlier work
human TLR4 [4] = biological target: T1, human TLR4; test: Competitive vs non-competitive antagonist type: agonist diluted in a fixed concentration of inhibitor, human TLR4 HEK-Blue SEAP; format: cell-based; design: host or cells: HEK-Blue (HEK293-derived) reporter cells; settings: fixed ML3 3 μM, ML4A 3 μM or Lipid IVa 0.1 μM; agonist PHAD or 3D-6A-PHAD diluted from 10 μM
Description: as §2
Pharmacological profiles of the TLR4 reagents were generated by performing dose response curves in one of four formats. 1) Agonist potency and efficacy (EC50 and height of dose plateau, respectively) were measured by diluting TLR4 reagents successively in complete culture medium [DMEM or RPMI supplemented with fetal bovine serum (FBS) or RPMI supplemented with human serum, depending on cell-type]. […] 2) Mixed agonist–antagonist potency and efficacy were measured by mixing a TLR4 agonist with a candidate antagonist at a fixed ratio and then performing half-log step dilutions before treating HEK reporter cells. […] 4) Inhibitory potency (IC50) was measured by diluting antagonists within a fixed concentration of a reference agonist, treating HEK reporter cells and performing SEAP assays as described.

mouse TLR4 [5] = biological target: T2, mouse TLR4; design: method as in PMID 1918061; settings: cited from earlier work
human TLR4 [6] = biological target: T1, human TLR4; test: Mixed agonist-antagonist dose curves at fixed ratio, human TLR4 HEK-Blue SEAP; format: cell-based; design: host or cells: HEK-Blue (HEK293-derived) reporter cells
Description: as §2
(§4) Pharmacological profiles of the TLR4 reagents were generated by performing dose response curves in one of four formats. 1) Agonist potency and efficacy (EC50 and height of dose plateau, respectively) were measured by diluting TLR4 reagents successively in complete culture medium [DMEM or RPMI supplemented with fetal bovine serum (FBS) or RPMI supplemented with human serum, depending on cell-type]. Half-log step dilutions were performed in 96-well, U-bottom microtiter plates using a multichannel pipette to transfer and mix the suspensions, with fresh tips used for each dilution step. One-tenth (20 μl) volumes from wells of the dilution plate were then transferred to wells containing cells that had been plated in nine-tenth volumes (180 μl) of culture medium. 2) Mixed agonist–antagonist potency and efficacy were measured by mixing a TLR4 agonist with a candidate antagonist at a fixed ratio and then performing half-log step dilutions before treating HEK reporter cells. Analysis of values obtained from SEAP assays of culture supernatants was then performed as described for preparations containing agonist alone, above. 3) Competitive vs allosteric or non-competitive antagonist type was evaluated by diluting a reference agonist within a fixed concentration of a candidate inhibitor in half-log steps, treating HEK reporter cells, performing SEAP assays and then analyzing the data as described for agonist assays, above. Competitive antagonists are characterized by values that reach the same dose plateau as for a reference, full agonist, while shifting potency to higher EC50 values. […] 4) Inhibitory potency (IC50) was measured by diluting antagonists within a fixed concentration of a reference agonist, treating HEK reporter cells and performing SEAP assays as described.

human TLR4 [7] = biological target: T1, human TLR4; test: Inhibition curves (IC50 format): antagonist diluted in a fixed concentration of reference agonist, human TLR4 HEK-Blue SEAP; format: cell-based; design: host or cells: HEK-Blue (HEK293-derived) reporter cells; settings: for inhibition of PHAD stimulation: fixed PHAD 1 μM, 22 h
Description: as §2, §4

T1 sequence (O00206 24-839): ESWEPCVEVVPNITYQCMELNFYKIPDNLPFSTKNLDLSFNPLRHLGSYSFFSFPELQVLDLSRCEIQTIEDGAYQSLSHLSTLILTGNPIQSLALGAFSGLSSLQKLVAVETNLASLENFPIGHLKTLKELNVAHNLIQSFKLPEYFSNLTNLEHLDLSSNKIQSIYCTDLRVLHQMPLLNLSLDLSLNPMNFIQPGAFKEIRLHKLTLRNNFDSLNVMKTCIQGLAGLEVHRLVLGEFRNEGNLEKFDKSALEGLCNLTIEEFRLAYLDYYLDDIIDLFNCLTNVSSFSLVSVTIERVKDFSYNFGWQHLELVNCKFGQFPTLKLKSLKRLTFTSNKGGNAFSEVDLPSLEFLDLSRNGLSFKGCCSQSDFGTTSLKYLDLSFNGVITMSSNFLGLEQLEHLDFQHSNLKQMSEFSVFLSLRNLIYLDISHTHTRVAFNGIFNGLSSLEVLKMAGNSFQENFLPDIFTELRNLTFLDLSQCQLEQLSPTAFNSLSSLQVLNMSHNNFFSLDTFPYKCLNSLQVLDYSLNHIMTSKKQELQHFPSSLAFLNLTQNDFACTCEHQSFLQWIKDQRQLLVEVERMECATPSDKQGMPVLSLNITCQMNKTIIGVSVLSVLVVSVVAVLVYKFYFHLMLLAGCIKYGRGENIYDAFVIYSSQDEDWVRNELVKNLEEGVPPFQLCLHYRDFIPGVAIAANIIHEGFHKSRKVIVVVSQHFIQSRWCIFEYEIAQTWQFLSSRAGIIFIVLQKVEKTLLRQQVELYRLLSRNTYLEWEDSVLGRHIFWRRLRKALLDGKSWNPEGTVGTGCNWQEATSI
T1 sequence (Q9Y6Y9 17-160 limits assumed): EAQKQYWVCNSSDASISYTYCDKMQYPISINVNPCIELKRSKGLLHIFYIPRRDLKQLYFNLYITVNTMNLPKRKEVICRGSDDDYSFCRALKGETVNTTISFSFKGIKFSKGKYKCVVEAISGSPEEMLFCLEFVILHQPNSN

Compound	EC50 (human TLR4 [1]) [nM]	agonist profile (mouse TLR4 [2])	agonist profile (human TLR4 [1])	inhibition of PHAD stimulation (human TLR4 [7])	also measured
CCCCCCCCCCCCCC(=O)OC(CCCCCCCCCCC)CC(=O)NC1C(O)OC(COC2OC(CO)C(OP(=O)(O)O)C(OC(=O)CC(CCCCCCCCCCC)OC(=O)CCCCCCCCCCCCC)C2NC(=O)CC(CCCCCCCCCCC)OC(=O)CCCCCCCCCCCCC)C(O)C1O (stereo not shown) [3D-6A-PHAD, reference compound]	300				
CCCCCCCCCCCCCC(=O)O[C@H](CCCCCCCCCCC)CC(=O)O[C@@H]1[C@@H](NC(=O)C[C@@H](CCCCCCCCCCC)OC(=O)CCCCCCCCCCC)[C@H](OC[C@H]2O[C@H](OP(=O)(O)O)[C@H](NC(=O)C[C@H](O)CCCCCCCCCCC)[C@@H](OC(=O)C[C@H](O)CCCCCCCCCCC)[C@@H]2O)O[C@H](CO)[C@H]1OP(=O)(O)O [Lipid A, reference compound]		most potent of the agonists tested	most potent of the agonists tested		ED50 (95% CI) (mouse TLR4 [2]; mouse Tlr4 reporter cells, stimulatory curve fit, Figure 3C): 0.7 (0.5-0.9) ng/mL; ED50 (95% CI) (human TLR4 [1]; human TLR4 reporter cells, stimulatory curve fit, Figure 3C): 1.0 (0.8-1.1) ng/mL
CCCCCCCCCCC[C@@H](O)CC(=O)N[C@H]1[C@H](OC[C@H]2O[C@H](OP(=O)(O)O)[C@H](NC(=O)C[C@H](O)CCCCCCCCCCC)[C@@H](OC(=O)C[C@H](O)CCCCCCCCCCC)[C@@H]2O)O[C@H](CO)[C@@H](OP(=O)(O)O)[C@@H]1OC(=O)C[C@H](O)CCCCCCCCCCC [Lipid IVa, reference compound]					activity on human TLR4 (human TLR4 [3]): competitive antagonist of human TLR4; antagonist type (human TLR4 [4]): competitive antagonist curve; activity on mouse TLR4 (mouse TLR4 [5]): agonist of mouse TLR4; effect on agonist dose curve in fixed-ratio mixture (human TLR4 [6]; mixed with PHAD at 1:60 or 1:20 antagonist:agonist): clearly flatted; effect on agonist dose curve in fixed-ratio mixture (human TLR4 [6]; mixed with PHAD at 1:180 antagonist:agonist): trending to a flattened curve; inhibition of 3D-6A-PHAD stimulation (human TLR4 [7]; fixed 3D-6A-PHAD 300 nM): functioned as inhibitors; IC50 (human TLR4 [7]; fixed PHAD 30 nM, 95% CI given): 0.19 nM
CCCCCCCCCCCCCC(=O)OC(CCCCCCCCCCC)CC(=O)OC1C(NC(=O)CC(CCCCCCCCCCC)OC(=O)CCCCCCCCCCC)C(OCC2OC(O)C(NC(=O)CC(O)CCCCCCCCCCC)C(O)C2O)OC(CO)C1OP(=O)(O)O (stereo not shown) [ML5A]			weaker agonists of human TLR4 than of mouse TLR4	only ML3 and ML4A showed inhibitory potential	
CCCCCCCCCCCCCCCC(=O)OC(CCCCCCCCCCC)CC(=O)NC1C(O)OC(COC2OC(CO)C(OP(=O)(O)O)C(OC(=O)CC(CCCCCCCCCCC)OC(=O)CCCCCCCCCCCCC)C2NC(=O)CC(CCCCCCCCCCC)OC(=O)CCCCCCCCCCC)C(O)C1O (stereo not shown) [ML6]			weaker agonists of human TLR4 than of mouse TLR4	only ML3 and ML4A showed inhibitory potential	
CCCCCCCCCCCCCC(=O)O[C@H](CCCCCCCCCCC)CC(=O)N[C@H]1[C@H](OC[C@H]2OC(O)[C@H](NC(=O)C[C@H](O)CCCCCCCCCCC)[C@@H](OC(=O)C[C@H](O)CCCCCCCCCCC)[C@@H]2O)O[C@H](CO)[C@@H](OP(=O)(O)O)[C@@H]1OC(=O)C[C@@H](CCCCCCCCCCC)OC(=O)CCCCCCCCCCCCC (stereo partly shown) [PHAD, phosphorylated hexa-acyl disaccharide, reference compound]	30	weak yet full agonist of both mouse and human TLR4	weak yet full agonist of both mouse and human TLR4		
